Measurements taken from patent US11504415B2, “Treatment of heart failure with preserved ejection fraction” (Stichting VUmc, priority 2016, dated 2022).
Entries after “also recorded” stand apart in the source; their conditions may differ.

Columns and labels:
Assay type in all cases: cell-based, human
donor cardiomyocytes = assay: Force measurements (Fpassive) in single demembranated donor cardiomyocytes; settings: SL 1.8-2.4 μm; for Fpassive (Fpassive-SL curve) after alkaline phosphatase vs baseline: AP 2000 U/mL, 40 minutes at 20° C.
Description: (§1) Force measurements were performed on single demembranated cardiomyocytes (n ranged from 9 to 15 for each group and experimental protocol) as described previously.^4, 5 Cardiomyocytes were isolated from donor, AS, and DCM hearts. Briefly, samples were thawed in relaxing solution (in mmol/L: free Mg, 1; KCl, 100; EGTA, 2; Mg-ATP, 4; imidazole, 10; pH 7.0), mechanically disrupted and incubated for 5 minutes in relaxing solution supplemented with 0.5% TRITON® X-100. The cell suspension was washed 5 times in relaxing solution. Single cardiomyocytes were selected under an inverted microscope and attached with silicone adhesive between a force transducer and a piezoelectric motor. Cardiomyocyte Fpassive was measured in relaxing buffer at room temperature within a sarcomere length (SL) range between 1.8 and 2.4 μm. Force values were normalized to cardiomyocyte cross-sectional area calculated from the diameter of the cells, assuming a cylindrical shape. As a test of cell viability, each cardiomyocyte was also transferred from relaxing to maximally activating solution (pCa4.5), at which isometric force developed. Once a steady state force was reached, the cell was shortened within 1 ms to 80% of its original length to determine baseline force. Only cells developing active forces >20 kN/m^2 were included in the analysis. Thereafter, cardiomyocytes were incubated in relaxing solution supplemented with alkaline phosphatases (AP) (2000 U/mL; New England Biolabs), 6 mmol/L dithiothreitol (MP Biochemicals) for 40 minutes at 20° C. and Fpassive was measured again at SL 1.8-2.4 μm. Subsequently, cardiomyocytes were stretched to ˜2.6 μm SL, incubated in relaxing buffer with pH 6.6, and held in the stretched state for 15 minutes (prestretch). […] Finally, the pH 6.6 buffer was supplemented with recombinant human α-B crystallin at 0.1 mg/ml and Fpassive was measured in the presence of α-B crystallin again at SL 1.8-2.4 μm.

DCM cardiomyocytes = assay: Force measurements (Fpassive) in single demembranated dilated cardiomyopathy (DCM) cardiomyocytes; settings: SL 1.8-2.4 μm; for Fpassive (Fpassive-SL curve) after alkaline phosphatase vs baseline: AP 2000 U/mL, 40 minutes at 20° C.
Description: as §1

AS cardiomyocytes = assay: Force measurements (Fpassive) in single demembranated aortic stenosis (AS) cardiomyocytes; settings: for Fpassive (Fpassive-SL curve) after alkaline phosphatase vs baseline: AP 2000 U/mL, 40 minutes at 20° C.; for Fpassive (Fpassive-SL curve) after α-B crystallin vs AS baseline: single AS cardiomyocytes
Description: Force measurements were performed on single demembranated cardiomyocytes (n ranged from 9 to 15 for each group and experimental protocol) as described previously.^4, 5 Cardiomyocytes were isolated from donor, AS, and DCM hearts. Briefly, samples were thawed in relaxing solution (in mmol/L: free Mg, 1; KCl, 100; EGTA, 2; Mg-ATP, 4; imidazole, 10; pH 7.0), mechanically disrupted and incubated for 5 minutes in relaxing solution supplemented with 0.5% TRITON® X-100. The cell suspension was washed 5 times in relaxing solution. Single cardiomyocytes were selected under an inverted microscope and attached with silicone adhesive between a force transducer and a piezoelectric motor. Cardiomyocyte Fpassive was measured in relaxing buffer at room temperature within a sarcomere length (SL) range between 1.8 and 2.4 μm. Force values were normalized to cardiomyocyte cross-sectional area calculated from the diameter of the cells, assuming a cylindrical shape. As a test of cell viability, each cardiomyocyte was also transferred from relaxing to maximally activating solution (pCa4.5), at which isometric force developed. Once a steady state force was reached, the cell was shortened within 1 ms to 80% of its original length to determine baseline force. Only cells developing active forces >20 kN/m^2 were included in the analysis. Thereafter, cardiomyocytes were incubated in relaxing solution supplemented with alkaline phosphatases (AP) (2000 U/mL; New England Biolabs), 6 mmol/L dithiothreitol (MP Biochemicals) for 40 minutes at 20° C. and Fpassive was measured again at SL 1.8-2.4 μm. Subsequently, cardiomyocytes were stretched to ˜2.6 μm SL, incubated in relaxing buffer with pH 6.6, and held in the stretched state for 15 minutes (prestretch). Thereafter, cardiomyocytes were returned to slack length and stabilized for 5 minutes before recording the Fpassive with an identical stretch protocol from SL 1.8-2.4 μm in the low pH buffer. Finally, the pH 6.6 buffer was supplemented with recombinant human α-B crystallin at 0.1 mg/ml and Fpassive was measured in the presence of α-B crystallin again at SL 1.8-2.4 μm.
In a second set of experiments, single AS cardiomyocytes underwent either incubation at pH 6.6 alone or a prestretch in relaxing buffer with pH 6.6 to ˜2.6 μm SL, followed by the same stretch protocol from SL 1.8-2.4 μm.
Finally, in a third set of experiments, Fpassive was measured in single AS cardiomyocytes from SL 1.8-2.4 μm before and after incubation with α-B crystallin, before and after incubation with α-B crystallin and a prestretch to ˜2.6 μm SL, and before and after incubation with α-B crystallin, a prestretch to ˜2.6 μm SL and incubation at pH 6.6.

[1] = after AP, prestretch to ~2.6 μm SL in pH 6.6, α-B crystallin 0.1 mg/ml

Molecule | Fpassive (Fpassive-SL curve) after alkaline phosphatase vs baseline (donor cardiomyocytes) | Fpassive (Fpassive-SL curve) after alkaline phosphatase vs baseline (donor cardiomyocytes; listed as AP) | Fpassive (Fpassive-SL curve) after alkaline phosphatase vs baseline (DCM cardiomyocytes) | Fpassive (Fpassive-SL curve) after alkaline phosphatase vs baseline (DCM cardiomyocytes; listed as AP) | Fpassive (Fpassive-SL curve) after alkaline phosphatase vs baseline (AS cardiomyocytes; AS cardiomyocytes, SL 1.8-2.4 μm) | Fpassive (Fpassive-SL curve) after alkaline phosphatase vs baseline (AS cardiomyocytes; AS cardiomyocytes, SL 1.8-2.4 μm, listed as AP) | Fpassive (Fpassive-SL curve) after α-B crystallin (donor cardiomyocytes; [1]) | Fpassive (Fpassive-SL curve) after α-B crystallin (DCM cardiomyocytes; [1]) | Fpassive (Fpassive-SL curve) after α-B crystallin (AS cardiomyocytes; AS cardiomyocytes, after AP, prestretch to ~2.6 μm SL in pH 6.6, α-B crystallin 0.1 mg/ml, SL 1.8-2.4 μm) | Fpassive (Fpassive-SL curve) after α-B crystallin vs AS baseline (AS cardiomyocytes; α-B crystallin alone, no prior intervention (FIG. 6A), SL 1.8-2.4 μm) | Fpassive (Fpassive-SL curve) after α-B crystallin vs AS baseline (AS cardiomyocytes; α-B crystallin and prestretch to ~2.6 μm SL alone (FIG. 6B)) | Fpassive (Fpassive-SL curve) after α-B crystallin vs AS baseline (AS cardiomyocytes; α-B crystallin, prestretch to ~2.6 μm SL and pH 6.6 (FIG. 6C))
alkaline phosphatase [reference compound] | Fpassive significantly increased; also recorded: the Fpassive-SL curve shifted upward | shifts the diastolic Fpassive-SL relation upward in donor | the Fpassive-SL curve failed to shift | had no effect on the Fpassive-SL curve; also recorded: not in AS or DCM cardiomyocytes | the Fpassive-SL curve failed to shift | no significant change in the Fpassive-SL curve; also recorded: not in AS or DCM cardiomyocytes |  |  |  |  |  | 
α-B crystallin: recombinant human α-B crystallin; small heat shock protein encoded by the CRYAB gene, SEQ ID NO:1 (protein, listed as Homo sapiens) MDIAIHHPWIRRPFFPFHSPSRLFDQFFGEHLLESDLFPTSTSLSPFYLRPPSFLRAPSWFDTGLSEMRLEKDRFSVNLDVKHFSPEELKVKVLGDVIEVHGKHEERQDEHGFISREFHRKYRIPADVDPLTITSSLSSDGVLTVNGPRKQVSGPERTIPITREEKPAVTAAPKK |  |  |  |  |  |  | Fpassive normalized again to baseline; also recorded: the curve returned to an intermediate position between baseline and AP; also recorded: coincides with the baseline diastolic Fpassive-SL relation of donor cardiomyocytes | lowered diastolic stiffness well below baseline values; also recorded: Fpassive dropped to a level significantly below baseline; also recorded: fell to a position that was significantly below baseline and comparable to the baseline position of donor cardiomyocytes; also recorded: falls below the baseline diastolic Fpassive-SL relation in AS and DCM cardiomyocytes | lowered diastolic stiffness well below baseline values; also recorded: dropped Fpassive to a level significantly lower than baseline; also recorded: dropped to a position that was significantly lower than baseline and comparable to the baseline position of donor cardiomyocytes; also recorded: falls below the baseline diastolic Fpassive-SL relation in AS and DCM cardiomyocytes | shifted the diastolic Fpassive-SL relation downward; also recorded: decreased Fpassive significantly; also recorded: shifted the Fpassive-SL curve significantly downward compared to baseline | decreased Fpassive significantly as well; also recorded: yielded a similar result | decreased Fpassive significantly as well; also recorded: yielded a similar result
